Measured values: US12129229B2, “Amarouciaxanthin A esters and uses thereof” (GAT THERAPEUTICS, S.L., priority 2021, dated 2024)

Experiments:
[1] = ACX-Ac oral kinetic assay: plasma levels after intragastric administration; assay type: in vivo, mice Hsd:ICR (CD-1); conditions: female mice
Experimental: Immunocompetent mice from the strain Hsd:ICR (CD-1) (females, 6-7 weeks old from ENVIGO), were housed under sterile conditions at a constant temperature of 20-22° C. and relative humidity (45-65%) under daily cycles of light/darkness (12 hours). Sterilized water and food were available ad libitum.
Amarouciaxanthin A acetate (ACX-Ac) was dissolved at 1 mg/mL in a suitable vehicle and sterilized by filtration. Animals were weighted before the assay to determine the appropriate dispensing volume at 10 mL/kg. Formulation was administered once, intragastrically, at 10 mg/kg. Blood was collected at different time points, as stated in Table 1. It was extracted either through the facial vein or by intracardiac puncture (end points), on recipients containing 5 μL of 0.5 M EDTA.
Blood samples were analyzed by HPLC-MS/MS following proprietary analytical methods and the concentration of ACX in each sample was determined. A noncompartmental pharmacokinetic analysis was carried out using individual plasma concentrations versus sampling times by means of the PKPlus® software version 2.0 (Simulations Plus, Lancaster, CA 93534, USA).

rodent models = conditions: Biochem Biophys Res Commun, 2020, 528, 305-310; cited from earlier work

| Molecule | ACX-Ac in plasma samples ([1]; ACX-Ac 10 mg/kg once intragastrically, HPLC-MS/MS, 2 min to 72 h) | area under the concentration-time curve (AUCt) of ACX ([1]; analyte ACX after ACX-Ac 10 mg/kg once intragastrically, noncompartmental analysis) | Cmax ([1]; analyte ACX after ACX-Ac 10 mg/kg once intragastrically, noncompartmental analysis, read-out: maximum observed plasma concentration (Cmax) of ACX) | effect on hepatic oxidative stress, inflammation, and fibrosis (rodent models) |
| --- | --- | --- | --- | --- |
| Amarouciaxanthin A acetate [ACX-Ac] | not detected | 80.59 µM·h | 9.35 µM |  |
| CC1=CC(=O)CC(C)(C)[C@@]1(O)CC(=O)/C(C)=C/C=C/C(C)=C/C=C/C=C(C)/C=C/C=C(\C)C=C=C1C(C)(C)C[C@H](O)C[C@@]1(C)O [ACX, Amarouciaxanthin A] |  |  |  | significantly inhibit hepatic oxidative stress, inflammation, and fibrosis |
